In ChEMBL document CHEMBL3124935, “Synthesis and study of cytotoxic activity of 1,2,4-trioxane- and egonol-derived hybrid molecules against Plasmodium falciparum and multidrug-resistant human leukemia cells” (Eur J Med Chem, 2014):

Key:
CCRF-CEM [1] = assay: Resistance ratio of IC50 for human multidrug-resistant CEM/ADR5000 cells expressing p-glycoprotein to IC50 for human CCRF-CEM cells; format: functional
CCRF-CEM [2] = assay: Cytotoxicity against human CCRF-CEM cells by resazurin assay; format: functional, cell-based
[3] = Cytotoxicity against human multidrug-resistant CEM/ADR5000 cells expressing p-glycoprotein by resazurin assay; format: functional, cell-based
Plasmodium falciparum = assay: Antimalarial activity against Plasmodium falciparum 3D7 assessed as growth inhibition after 3 days by HRP2 based ELISA; format: functional, organism-based; conditions: 3D7, 72 h
[4] = Cytotoxicity against human multidrug-resistant CEM/ADR5000 cells expressing p-glycoprotein at 400 uM by resazurin assay; format: functional, cell-based

SMILES	Ratio IC50 (CCRF-CEM [1])	IC50 (CCRF-CEM [2]) [nM]	IC50 [3] [nM]	IC50 (Plasmodium falciparum) [nM]	IC50 [4]
COc1cc(CCCO)cc2cc(-c3ccc4c(c3)OCO4)oc12 [EGONOL]	1.7	5750	9780	25400	
C[C@@H]1CC[C@H]2[C@@H](C)C(CCCO)O[C@@H]3O[C@@]4(C)CC[C@@H]1[C@]32OO4 (some centres undefined)		174000			Not Active
C[C@@H]1CC[C@H]2[C@@H](C)C(=O)O[C@@H]3O[C@@]4(C)CC[C@@H]1[C@]32OO4 [ARTEMISININ]	0.73				
COc1cc(CCCOC(=O)CCC(=O)O[C@@H]2O[C@@H]3O[C@@]4(C)CC[C@H]5[C@H](C)CC[C@@H]([C@H]2C)[C@@]35OO4)cc2cc(-c3ccc4c(c3)OCO4)oc12	6.12	180	1120	2.3	
COc1cccc2c1C(=O)c1c(O)c3c(c(O)c1C2=O)C[C@@](O)(C(=O)CO)C[C@@H]3O[C@H]1C[C@H](N)[C@H](O)[C@H](C)O1 [DOXORUBICIN]	2585	9	23300		
C[C@H]1[C@H](OC(=O)CCC(=O)NCC(O)CNC(=O)CCC(=O)O[C@@H]2O[C@@H]3O[C@@]4(C)CC[C@H]5[C@H](C)CC[C@@H]([C@H]2C)[C@@]35OO4)O[C@@H]2O[C@@]3(C)CC[C@H]4[C@H](C)CC[C@@H]1[C@@]24OO3 (some centres undefined)				0.32	
C[C@H]1[C@H](OC(=O)CCC(=O)NCCCCCCCCNC(=O)CCC(=O)O[C@@H]2O[C@@H]3O[C@@]4(C)CC[C@H]5[C@H](C)CC[C@@H]([C@H]2C)[C@@]35OO4)O[C@@H]2O[C@@]3(C)CC[C@H]4[C@H](C)CC[C@@H]1[C@@]24OO3				0.3	
C[C@H]1[C@H](OC(=O)CCC(=O)O)O[C@@H]2O[C@@]3(C)CC[C@H]4[C@H](C)CC[C@@H]1[C@@]24OO3 [ARTESUNATE]	0.67		1200	0.82	
